{
  "source": "the NIST ThermoML archive (doi:10.1021/je0302250)",
  "key": {"[1]": {"conditions": "101.3 kPa, Liquid, Capillary tube (Ostwald / Ubbelohde) method"}, "[2]": {"assay": "xn = mol fraction of the nth substance listed", "conditions": "101.3 kPa, Liquid, Capillary tube (Ostwald / Ubbelohde) method"}},
  "note": "± gives the expanded uncertainty stated by the source.",
  "data": [
    {"smiles": "CN(CCO)CCO", "note": "[N-methyldiethanolamine]", "values": [
      {"measurement": "viscosity", "setting": "[1]; 313.15 K", "value": "34.62 ± 0.41", "unit": "mPa·s"},
      {"measurement": "viscosity", "setting": "[1]; 333.15 K", "value": "14.38 ± 0.17", "unit": "mPa·s"},
      {"measurement": "viscosity", "setting": "[1]; 353.15 K", "value": "7.082 ± 0.086", "unit": "mPa·s"},
      {"measurement": "viscosity", "setting": "[1]; 363.15 K", "value": "5.277 ± 0.064", "unit": "mPa·s"}
    ]},
    {"smiles": "CN(CCO)CCO", "note": "[N-methyldiethanolamine] + O", "values": [
      {"measurement": "viscosity", "setting": "[2]; 313.15 K, x1 = 0.06", "value": "1.94 ± 0.023", "unit": "mPa·s"},
      {"measurement": "viscosity", "setting": "[2]; 313.15 K, x1 = 0.09", "value": "3.115 ± 0.039", "unit": "mPa·s"},
      {"measurement": "viscosity", "setting": "[2]; 313.15 K, x1 = 0.129", "value": "5.108 ± 0.069", "unit": "mPa·s"},
      {"measurement": "viscosity", "setting": "[2]; 313.15 K, x1 = 0.257", "value": "15.18 ± 0.18", "unit": "mPa·s"},
      {"measurement": "viscosity", "setting": "[2]; 313.15 K, x1 = 0.372", "value": "24.78 ± 0.28", "unit": "mPa·s"},
      {"measurement": "viscosity", "setting": "[2]; 313.15 K, x1 = 0.583", "value": "34.79 ± 0.39", "unit": "mPa·s"},
      {"measurement": "viscosity", "setting": "[2]; 313.15 K, x1 = 0.743", "value": "35.92 ± 0.41", "unit": "mPa·s"},
      {"measurement": "viscosity", "setting": "[2]; 313.15 K, x1 = 1", "value": "34.62 ± 0.41", "unit": "mPa·s"},
      {"measurement": "viscosity", "setting": "[2]; 333.15 K, x1 = 0.06", "value": "1.202 ± 0.014", "unit": "mPa·s"},
      {"measurement": "viscosity", "setting": "[2]; 333.15 K, x1 = 0.09", "value": "1.709 ± 0.021", "unit": "mPa·s"},
      {"measurement": "viscosity", "setting": "[2]; 333.15 K, x1 = 0.129", "value": "2.703 ± 0.034", "unit": "mPa·s"},
      {"measurement": "viscosity", "setting": "[2]; 333.15 K, x1 = 0.257", "value": "6.7 ± 0.081", "unit": "mPa·s"},
      {"measurement": "viscosity", "setting": "[2]; 333.15 K, x1 = 0.372", "value": "10.24 ± 0.12", "unit": "mPa·s"},
      {"measurement": "viscosity", "setting": "[2]; 333.15 K, x1 = 0.583", "value": "13.74 ± 0.16", "unit": "mPa·s"},
      {"measurement": "viscosity", "setting": "[2]; 333.15 K, x1 = 0.743", "value": "14.49 ± 0.17", "unit": "mPa·s"},
      {"measurement": "viscosity", "setting": "[2]; 333.15 K, x1 = 1", "value": "14.38 ± 0.17", "unit": "mPa·s"},
      {"measurement": "viscosity", "setting": "[2]; 353.15 K, x1 = 0.06", "value": "0.813 ± 0.01", "unit": "mPa·s"},
      {"measurement": "viscosity", "setting": "[2]; 353.15 K, x1 = 0.09", "value": "1.127 ± 0.014", "unit": "mPa·s"},
      {"measurement": "viscosity", "setting": "[2]; 353.15 K, x1 = 0.129", "value": "1.63 ± 0.02", "unit": "mPa·s"},
      {"measurement": "viscosity", "setting": "[2]; 353.15 K, x1 = 0.257", "value": "3.472 ± 0.042", "unit": "mPa·s"},
      {"measurement": "viscosity", "setting": "[2]; 353.15 K, x1 = 0.372", "value": "4.873 ± 0.057", "unit": "mPa·s"},
      {"measurement": "viscosity", "setting": "[2]; 353.15 K, x1 = 0.583", "value": "6.569 ± 0.077", "unit": "mPa·s"},
      {"measurement": "viscosity", "setting": "[2]; 353.15 K, x1 = 0.743", "value": "7.084 ± 0.083", "unit": "mPa·s"},
      {"measurement": "viscosity", "setting": "[2]; 353.15 K, x1 = 1", "value": "7.082 ± 0.086", "unit": "mPa·s"},
      {"measurement": "viscosity", "setting": "[2]; 363.15 K, x1 = 0.06", "value": "0.687 ± 0.008", "unit": "mPa·s"},
      {"measurement": "viscosity", "setting": "[2]; 363.15 K, x1 = 0.09", "value": "0.871 ± 0.01", "unit": "mPa·s"},
      {"measurement": "viscosity", "setting": "[2]; 363.15 K, x1 = 0.129", "value": "1.205 ± 0.015", "unit": "mPa·s"},
      {"measurement": "viscosity", "setting": "[2]; 363.15 K, x1 = 0.257", "value": "2.606 ± 0.031", "unit": "mPa·s"},
      {"measurement": "viscosity", "setting": "[2]; 363.15 K, x1 = 0.372", "value": "3.611 ± 0.042", "unit": "mPa·s"},
      {"measurement": "viscosity", "setting": "[2]; 363.15 K, x1 = 0.583", "value": "4.749 ± 0.056", "unit": "mPa·s"},
      {"measurement": "viscosity", "setting": "[2]; 363.15 K, x1 = 0.743", "value": "5.278 ± 0.062", "unit": "mPa·s"},
      {"measurement": "viscosity", "setting": "[2]; 363.15 K, x1 = 1", "value": "5.277 ± 0.064", "unit": "mPa·s"}
    ]},
    {"smiles": "O", "note": "[water] + CN(CCO)CCO", "values": [
      {"measurement": "viscosity", "setting": "[2]; 313.15 K, x2 = 0", "value": "0.656 ± 0.008", "unit": "mPa·s"},
      {"measurement": "viscosity", "setting": "[2]; 333.15 K, x2 = 0", "value": "0.476 ± 0.006", "unit": "mPa·s"},
      {"measurement": "viscosity", "setting": "[2]; 353.15 K, x2 = 0", "value": "0.358 ± 0.004", "unit": "mPa·s"},
      {"measurement": "viscosity", "setting": "[2]; 363.15 K, x2 = 0", "value": "0.305 ± 0.004", "unit": "mPa·s"}
    ]}
  ]
}
